These results are taken from patent US3966824A, “P,P'-Disubstituted α-trichloromethylbenzylphenyl ethers” (University of Illinois Foundation, priority 1974, dated 1976).

Data set [1] has as its system Musca domestica Rsp. The experiment in a line: Topical toxicity to adult female Rsp (resistant) houseflies, alone and with piperonyl butoxide. It is filed as in vivo, Musca domestica L. The method, then:
(§1) The compounds of the present invention were tested for insecticidal activity by standard methods, and compared with the insecticidal activities of DDT and symmetrical analogs of DDT, such as methoxychlor. Toxicological methods for the determination of the topical LD50 values to adult female SNAIDM and PSR houseflies, Musca domestica L. and to Phormia regina, and LC50 values to clex pipiens quinquefas ciatus Say, and Anopheles albimanus Weid mosquitoes were described by Metcalf et al., 44 Bull. World Health Org. 363 (1971). The methods for evaluation of metabolism by mouse liver homogenate and by female RSP housefly and salt-marsh caterpillar larvae Estigmene acrea Drury, were described by Metcalf et al., 5 J. Environ. Sci. Tech. 709 (1971).
(§2) The synergistic ratios or SR values (LD50 alone/ LD50 synergized with piperonyl butoxide) shown in Table II indicate the role of the multifunction oxidase (MFO) in detoxifying the individual compounds. Since piperonyl butoxide serves to block the action of MFO, the synergized LD50 values express the intrinsic toxicity of the compounds. With the detoxifying action of MFO enzymes blocked, the intrinsic toxicity of the compounds can thus be measured.

Data set [2] concerns Anopheles albimanus larvae. The experiment in a line: Toxicity to Anopheles albimanus mosquito larvae. Format: in vivo. The procedure:
as §1

Data set [3] has as its system Phormia regina. The experiment in a line: Topical toxicity to Phormia regina, alone and with piperonyl butoxide. Format: in vivo. The procedure:
as §1, §2

For data set [4], the system named is Culex fatigans larvae. The experiment in a line: Toxicity to Culex mosquito larvae. It is filed as in vivo. The method, then:
as §1

For data set [5], the system named is multifunction oxidase (MFO) enzymes. The experiment in a line: Biodegradability / metabolism by multifunction oxidase (MFO) enzymes (insects, mice, model ecosystem). As to conditions: inferred from SR values. It is filed as in vitro ADME.
Source text: It has been found from metabolic studies on insects, and mice, using a model ecosystem and the methods described in Kapoor, et al., 18(6) J.Agr., Food Chem. 1145 (1970), Metcalf, et al., J. Environ. Sci. Technol. 709 (1971) and also in the copending application of Metcalf et al., "Insecticidal Biodegradable Analogues of DDT", Ser. No. 147,241, filed May 26, 1971, and having a common assignee with the present application, that certain p,p'-disubstituted α-trichloromethylbenzylphenyl ethers with various substituent groups are readily attacked by multifunction oxidase (MFO) enzymes, and thus are substantially biodegradable.
as §1, with “709 (1971). […]” for “709 (1971).”

Data set [6] has as its system Musca domestica SNAIDM. Kind of data set: Topical toxicity to adult female SNAIDM (susceptible) houseflies, alone and with piperonyl butoxide. It is filed as in vivo, Musca domestica L. The method, then: as §1, §2

For orientation: LD50 means the dose at which mortality reaches 50%. Regarding `COc1ccc(OC(c2ccc(OC)cc2)C(Cl)(Cl)Cl)cc1` (stereo not drawn) [II, α-trichloromethyl-p-methoxybenzyl p-methoxyphenyl ether], in data set [1] (LD50 alone / LD50 synergized with piperonyl butoxide, Rsp), the “SR (synergistic ratio), Musca domestica Rsp” value was over 8.7. For the same compound, the LD50 in data set [1] (Musca domestica, Rsp strain, topical, alone) was over 500 mg/kg; in data set [3] (Phormia regina, topical, alone), 125 mg/kg; in data set [6] (Musca domestica, SNAIDM strain, topical, alone) it was 300 mg/kg. Besides, the “Topical LD50, Musca domestica Rsp, pb” value in data set [1] (Rsp strain, topical, synergized with piperonyl butoxide (pb)) is 57.5 μg per g. Besides, in data set [2], the “LC50 Anopheles albimanus larvae” value is on record as 0.10 ppm. In data set [3] (LD50 alone / LD50 synergized with piperonyl butoxide), the “SR (synergistic ratio), Phormia regina” value is on record as 1.5. The “Topical LD50, Phormia regina, pb” value in data set [3] (topical, synergized with piperonyl butoxide (pb)) was determined as 82.5 μg per g. For the same compound, in data set [4], the “LC50 Culex fatigans larvae” value turned out to be 0.51 ppm. The “detoxication in susceptible and resistant houseflies” value in data set [5] was “rapid detoxication”. For the same compound, the “SR (synergistic ratio), Musca domestica SNAIDM” value in data set [6] (LD50 alone / LD50 synergized with piperonyl butoxide, SNAIDM) stood at 22. The “Topical LD50, Musca domestica SNAIDM, pb” value in data set [6] (SNAIDM strain, topical, synergized with piperonyl butoxide (pb)) is on record as 14.0 μg per g.
